Converted amounts (≈) assume the structure as drawn.
Assays:
[1] = Lipophilicity (LogD, octanol/buffer); assay type: physicochemical; details: 1-octanol / 25 mM phosphate buffer; pH 7.4, octanol/25 mM phosphate buffer
Protocol: The experiment started with the accurate coating of the hydrophobic layer (0.45 µm PVDF membranes), which was fixed on the bottom of each DIFI©-tube (Weidmann Medical Technology AG, Rapperswil, Switzerland). The coated membranes were then connected to a 96-well plate which has been prefilled with exactly 150 µl of the selected aqueous buffer solution (25 mM phosphate buffer, pH 7.4). The buffer solution contains already the compound of interest with a maximum starting concentration of 85 µM. To expand the measurement range down to logD = −0.5 and up to logD = +4, it is necessary to carry out the procedure at two different octanol/water ratios: One with an excess of octanol for hydrophilic compounds (logD < 1) and one with a low volume of octanol for the lipophilic compounds (logD > 1). Therefore, parts of the DIFI©-tubes were filled with 15 µl 1-octanol and another part with 1 µl 1-octanol. The resulting sandwich guarantees that the membrane was completely dipped in the buffer solution. The plate was then sealed and shaken for 12 h at room temperature (23°C). During this time, the substance is distributed between the layer, the octanol, and the buffer solution. After having reached a distribution equilibrium, the DIFI©-tubes were easily disassembled from the top of the 96-well plate, so that the remaining sample concentration in the aqueous phase could be analyzed by LC/MS.

[2] = In vitro microsomal stability, mouse; assay type: in vitro ADME; details: mouse microsomes, 1 µM; value of 10 = low clearance, essentially below detection limit
Protocol: (§1) Incubations of a test compound at a concentration of 1 µM with microsomes (0.5 mg/ml) from the appropriate species (human, mouse, or rat) plus cofactor NADPH were performed in 96-well plates at 37°C on a TECAN automated liquid handling system (Tecan Group Ltd., Männedorf, Switzerland). After pre-incubation of the test compound with the microsomes for 10 min, the enzymatic reaction was started by the addition of cofactors. Aliquots of the incubations are removed at 1, 3, 6, 9, 15, 25, 35, and 45 min and are then quenched with 1:3 (v/v) acetonitrile containing internal standards. Samples were then cooled and centrifuged before analysis of the supernatant by LC-MS/MS. Logarithmic Peak area ratios (test compound peak area/internal standard peak area) were plotted against incubation time and a linear fit made to the data with emphasis upon the initial rate of compound disappearance. The slope of the fit was then used to calculate the intrinsic clearance: Clint (µL/min/mg protein) = −slope (min-1) * 1,000/[protein concentration (mg/ml)].

[3] = In vitro microsomal stability, human; assay type: in vitro ADME; details: human microsomes, 1 µM; value of 10 = low clearance, essentially below detection limit
Protocol: as §1

HT-solubility assay = assay type: physicochemical; details: aqueous buffer, thermodynamic from solid; phosphate buffer pH 6.5
Protocol: This assay was performed on a TECAN station starting from 10 mM DMSO stock solutions of the test compounds. Two aliquots of the test compound were dried and dissolved in phosphate buffer at pH 6.5. Sonication supports optimal re-solubilization. The solutions were then filtered and diluted (3 different dilution levels for each compound) followed by quantification of the dissolved material with Rapid-Fire MS. Quantification was performed for each test compound with a 6-point calibration curve prepared with the same DMSO starting solution.

human ATX = target: T1, human ATX (Homo sapiens, UniProt Q13822); test: Autotaxin inhibition assay (Amplex-Red); assay type: biochemical; details: ATX 3 nM, LPC 18:1 30 μM, read-out: hATX IC50
T1 construct: made in house
Protocol: Plates were sealed and incubated for 5 min. The final assay concentrations were ATX 3 nM, choline oxidase 2 U/ml, horseradish peroxidase 4 U/ml, LPC 18:1 30 μM, Amplex Red 50 μM, and DMSO 2%.

[4] = Glutathione addition screening; assay type: in vitro ADME; details: human liver microsomes + NADPH + GSH
Protocol: All sample handling was performed based on a 96-well plate format using an automated pipetting system. The test compounds, positive controls (diclofenac, troglitazone, nefazodone, 4-[[1-(4-fluorophenyl)-2-methyl-1H-imidazol-4-yl]ethynyl]-2-methylpyridine) and solvent control (DMSO) were incubated with human liver microsomes supplemented with NADPH and reduced GSH. Stable GSH conjugates whose production can be assumed to be the result of chemically reactive metabolites were detected using a quadrupole time of flight mass spectrometer run in untargeted full scan accurate mass MSE mode (Waters Xevo G1 QTOFMSE; Waters GmbH, Eschborn, Germany). This generic GSH adduct detection method and the assay workflow are taking advantage of the specific fragmentation behavior of the peptide moiety upon collision induced dissociation of GSH adducts and so are largely independent of the conjugate (“X”) itself.

[5] = In vitro microsomal stability, rat; assay type: in vitro ADME; details: rat microsomes, 1 µM; value of 10 = low clearance, essentially below detection limit
Protocol: as §1

Single dose PK in rats = assay type: in vivo; details: rat
Protocol: Exposures in animals treated with ATX-inhibitors were determined from K2EDTA treated plasma by LC-MS/MS at different time points. 25 µL of plasma was used for a single concentration determination. Concentration/time profiles were analyzed with MS Excel (Microsoft Corporation, Redmond, WA, United States).
For PK experiments for 7, 13, 14, and 15, respectively, animals were treated either iv or po and exposures were determined at different time points after compound administration. Suitable formulations for 13 were, for example, NMP:Tris buffer pH 8.5 (30%/70%) for iv administration with a nominal drug concentration of 1 mg/ml (dose 2 mg/kg) and a suspension in NMP:gelatine/NaCl (10%/90%) for po administration with a nominal drug concentration of 2.5 mg/ml (dose 10 mg/kg). PK parameters in Table 2 were estimated from the concentration time profiles using Phoenix WinNonlin software (Certara, Princeton, NJ, United States).

logD at 12 h [1]	Mic CL m [2]	Mic CL h [3]	solubility (HT-solubility assay) [µg/mL]	IC50 (human ATX) [µM]	GSH adducts [4]	Mic CL r [5] [µL/m/mg prot]	AUC(0-inf) (Single dose PK in rats; plasma, iv bolus, 3 mg/kg) [ng·h/mL]	half-life (Single dose PK in rats; plasma, iv bolus, 3 mg/kg) [min]	clearance (Single dose PK in rats; plasma, iv bolus, 3 mg/kg, read-out: CLp) [mL/min/kg]	Vd (Single dose PK in rats; plasma, iv bolus, 3 mg/kg, read-out: Vdss) [L/kg]	AUC(0-inf) (Single dose PK in rats; plasma, oral gavage, 20 mg/kg) [ng·h/mL]	Cmax (Single dose PK in rats; plasma, oral gavage, 20 mg/kg) [ng/mL]	Tmax (Single dose PK in rats; plasma, oral gavage, 20 mg/kg) [min]	half-life (Single dose PK in rats; plasma, oral gavage, 20 mg/kg) [min]	Oral F (Single dose PK in rats; oral gavage, 20 mg/kg) [%]	SMILES
3.6	149 µL/m/mg prot	54 µL/m/mg prot	< 1	0.017	pos											O=C(OCc1cc(Cl)cc(Cl)c1)N1CCC2(CC1)CN(C(=O)c1ccc3[nH]c(=O)oc3c1)C2 [Compound 4, 3,5-Dichlorobenzyl 2-(2-oxo-2,3-dihydrobenzo[d]oxazole-6-carbonyl)-2,7-diaza-spiro[3.5]-nonane-7-carboxylate]
3.5	65 µL/m/mg prot	23 µL/m/mg prot	9 (≈ 19 µM)	0.004	pos											O=C(OCc1cc(Cl)cc(Cl)c1)N1CC[C@@H]2CN(C(=O)c3ccc4[nH]nnc4c3)C[C@H]2C1 (relative stereo) [Compound 6, trans-2-(1H-Benzotriazole-5-carbonyl)-octahydro-pyrrolo[3,4-c]pyridine-5-carboxylic acid 3,5-dichloro-benzyl ester]
3.1	68 µL/m/mg prot	23 µL/m/mg prot	34 (≈ 73.9 µM)	0.265	pos											O=C(OCc1cc(Cl)cc(Cl)c1)N1C[C@@H]2CN(C(=O)c3ccc4[nH]nnc4c3)C[C@@H]2C1 [Compound 8, (3aR,6aS)-3,5-dichlorobenzyl 5-(1H-benzo[d][1,2,3]triazole-5-carbonyl)hexahydro-pyrrolo[3,4-c]pyrrole-2(1H)-carboxylate]
	727 µL/m/mg prot	252 µL/m/mg prot	7 (≈ 14.3 µM)	0.001												O=C(OCc1cc(Cl)cc(Cl)c1)N1CC[C@@H]2CN(C(=O)c3ccc4[nH]nnc4c3)C[C@@H]2CC1 [Compound 10, cis-3,5-Dichlorobenzyl 2-(1H-benzo[d][1,2,3]triazole-5-carbonyl)octahydropyrrolo-[3,4-d]azepine-6(7H)-carboxylate]
2.7	78 µL/m/mg prot	65 µL/m/mg prot	< 1		pos	84										O=C(CCN1CCN(C(=O)OCc2cc(Cl)cc(Cl)c2)CC1)c1ccc2[nH]c(=O)oc2c1 [Compound 1, reference compound]
3.6	63 µL/m/mg prot	30 µL/m/mg prot	3 (≈ 6.32 µM)	0.067	pos	29										O=C(OCc1cc(Cl)cc(Cl)c1)N1CCC2(CC1)CN(C(=O)c1ccc3[nH]nnc3c1)C2 [Compound 9, 3,5-Dichlorobenzyl 2-(1H-benzo[d][1,2,3]triazole-5-carbonyl)-2,7-diazaspiro[3.5]-nonane-7-carboxylate]
2.3	10/10/na µL/m/mg prot	10/10/na µL/m/mg prot	< 1	0.001	Neg											O=C(/C=C/c1ccc(OC(F)(F)F)cc1)N1C[C@@H]2CN(C(=O)c3ccc4[nH]nnc4c3)C[C@H]2C1 [Compound 11, (E)-1-((3aR,6aR)-5-(1H-benzo[d][1,2,3]triazole-5-carbonyl)hexahydropyrrolo[3,4-c]pyrrol-2(1H)-yl)-3-(4-(trifluoromethoxy)phenyl)prop-2-en-1-one]
3.6	81 µL/m/mg prot	92 µL/m/mg prot	< 1	0.22												O=C(OCc1cc(Cl)cc(Cl)c1)N1CC2(CCN(C(=O)c3ccc4[nH]c(=O)oc4c3)CC2)C1 [Compound 3, trans-3,5-Dichlorobenzyl 7-(2-oxo-2,3-dihydrobenzo[d]oxazole-6-carbonyl)-2,7-diaza-spiro[3.5]nonane-2-carboxylate]
3.3	288 µL/m/mg prot	64 µL/m/mg prot	19 (≈ 39.9 µM)	0.065	pos	335										O=C(OCc1cc(Cl)cc(Cl)c1)N1C[C@@H]2CN(C(=O)c3ccc4[nH]c(=O)oc4c3)C[C@@H]2C1 [Compound 5, (3aR,6aS)-3,5-Dichlorobenzyl 5-(2-oxo-2,3-dihydrobenzo[d]oxazole-6-carbonyl)-hexahydropyrrolo[3,4-c]pyrrole-2(1H)-carboxylate]
3.1	17 µL/m/mg prot	16 µL/m/mg prot	9 (≈ 19.6 µM)	0.004	pos	10	2140	48	23	1.3	7900	2500	15	96	54	O=C(OCc1cc(Cl)cc(Cl)c1)N1C[C@@H]2CN(C(=O)c3ccc4[nH]nnc4c3)C[C@H]2C1 [Compound 7, (3aS,6aS)-5-(1H-Benzotriazole-5-carbonyl)-hexahydro-pyrrolo [3,4-c]pyrrole-2-carboxylic acid 3,5-dichloro-benzyl ester]

SMILES	logD at 12 h [1]	Mic CL m [2]	Mic CL h [3]	solubility (HT-solubility assay) [µg/mL]	IC50 (human ATX) [µM]	GSH adducts [4]	Mic CL r [5] [µL/m/mg prot]	AUC(0-inf) (Single dose PK in rats; plasma, iv bolus, 3 mg/kg) [ng·h/mL]	half-life (Single dose PK in rats; plasma, iv bolus, 3 mg/kg) [min]	clearance (Single dose PK in rats; plasma, iv bolus, 3 mg/kg, read-out: CLp) [mL/min/kg]	Vd (Single dose PK in rats; plasma, iv bolus, 3 mg/kg, read-out: Vdss) [L/kg]	AUC(0-inf) (Single dose PK in rats; plasma, oral gavage, 20 mg/kg) [ng·h/mL]	Cmax (Single dose PK in rats; plasma, oral gavage, 20 mg/kg) [ng/mL]	Tmax (Single dose PK in rats; plasma, oral gavage, 20 mg/kg) [min]	half-life (Single dose PK in rats; plasma, oral gavage, 20 mg/kg) [min]	Oral F (Single dose PK in rats; oral gavage, 20 mg/kg) [%]
O=C(OCc1cc(Cl)cc(Cl)c1)N1CC[C@@H]2CN(C(=O)c3ccc4[nH]c(=O)oc4c3)C[C@H]2C1 (relative stereo) [Compound 2, trans-3,5-Dichlorobenzyl 2-(2-oxo-2,3-dihydrobenzo[d]oxazole-6-carbonyl)hexa-hydro-1H-pyrrolo[3,4-c]pyridine-5(6H)-carboxylate]	3.7	74 µL/m/mg prot	39 µL/m/mg prot	< 1	0.003	formation of GSH adducts was still observed and pos										

Reference: article PMC8807399, “Synthesis, Characterization, and in vivo Evaluation of a Novel Potent Autotaxin-Inhibitor” (Frontiers in Pharmacology, 2022)
